Assay results: US8394829B2, “Bi-functional quinoline analogs” (Gilead Sciences, Inc., priority 2010, dated 2013)

Key:
Human recombinant PDE4B2 = biological target: T1, Human recombinant PDE4B2 (Homo sapiens, UniProt Q07343); experiment: Inhibition of PDE4B4 enzyme activity (PDE Glo Assay); type: biochemical; details: human recombinant PDE4B2, 50 nM cAMP; read-out: PDE4 IC50
T1 construct: purchased BPS Bioscience
How it was run: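 Human recombinant PDE4B2 (0.12 nM) was pre-incubated with compound for 10 min at rt, then 50 nM cAMP was added for 1 hr. After IBMX stop and PKA detection, read-out was Kinase-Glo luminescence. IC50 came from a single-site nonlinear fit of RLU versus concentration.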

[1] = biological target: T2, human recombinant beta-2 adrenoreceptors (Homo sapiens, UniProt P07550); experiment: Beta-2 adrenoceptor binding assay ([3H](−)CGP-12177 displacement); details: CHO cells expressing human beta-2 adrenoreceptors, [3H](−)CGP-12177 0.3 nM, 120 min
T2 construct: expressed in transfected cells; host or cells: CHO cells
How it was run: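 Displacement of [3H](−)CGP-12177 (0.3 nM) from human recombinant beta-2 receptors expressed in CHO cells, measured after 120 min incubation with test compound. Bound radioligand counted by scintillation; IC50 taken from concentration-response curves as 50% of each compound's maximal inhibition.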

[2] = biological target: T2, human recombinant beta-2 adrenoreceptors; experiment: Functional agonism of human recombinant beta-2 adrenoreceptors expressed in CHO cells (cAMP HTRF); type: cell-based; details: CHO cells expressing human beta-2 adrenoreceptors, cAMP elevation, 30 min
How it was run: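 CHO cells expressing recombinant receptor incubated with compound for 30 min; intracellular cAMP rise over control read by HTRF. EC50 taken as concentration giving 50% of that compound's own maximal response, with full or partial agonism judged against isoproterenol maximum.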

[3] = tested on: LPS-induced TNF-α release from human peripheral blood mononuclear cells (PBMC); experiment: Inhibition of LPS-induced TNF-α release from human PBMC; type: cell-based; details: LPS 0.4 ng/mL, 6 h, presence or absence of ICI-118551 not given
How it was run: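 Ficoll-purified primary PBMC, 100,000 cells/well, pre-incubated 30 min ± 10 μM ICI-118551 (± gives PDE4-only vs PDE4 plus beta-2 activity), then compound 1 h at 37 °C (0.1% DMSO). Stimulated with 0.4 ng/mL LPS for 6 h; supernatant TNF-α by bead cytokine assay; IC50 from single-site fit.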

[4] = tested on: LPS-induced neutrophil recruitment into the lungs; experiment: Inhibition of LPS-induced neutrophil recruitment into the lungs of Lewis rats; type: in vivo; details: intra-tracheal dose of 300 μg/kg, 2 h before LPS aerosol, BAL 4 h post-LPS
Protocol: Inhibition of Lipoploysaccharide (LPS)-Induced Neutrophil Recruitment into the Lungs of Lewis Rats
Rats were anesthetized with 4% isoflurane, placed in the supine position at an angle of 30°, the mouth opened and the trachea exposed. A 22-gauge needle with a syringe attached was introduced into the trachea and test compound in suspension (200 μl volume per 400 g) was delivered into the lungs from approximately one centimeter above the carina. The rats were allowed to recover and two hrs later conscious animals were placed into a chamber and exposed to aerosolized LPS (1.0 mg/mL) at a rate of 3.0 L/min for 20 min. Rats were euthanized 4 h post-LPS exposure by an overdose of pentobarbital (90 mg/kg) by intra-peritoneal injection. […] The supernatant was discarded, the cells were re-suspended in PBS and total cell counts were determined based on a 10 μl sample of re-suspended cells stained with trypan blue and counts performed using a Countess® cell counter (Invitrogen). […] Manual eye counting was performed to determine the percentage number of cells in the cytospun sample (determined as macrophages, neutrophils, eosinophils, T-lymphocytes and eosinophils) and these values were used to determine the total number of each cell type per sample. Typically experiments contained a minimum of six rats per experimental group and the mean±SEM number of neutrophils was determined for each group. […]

T2 sequence (P07550 whole entry): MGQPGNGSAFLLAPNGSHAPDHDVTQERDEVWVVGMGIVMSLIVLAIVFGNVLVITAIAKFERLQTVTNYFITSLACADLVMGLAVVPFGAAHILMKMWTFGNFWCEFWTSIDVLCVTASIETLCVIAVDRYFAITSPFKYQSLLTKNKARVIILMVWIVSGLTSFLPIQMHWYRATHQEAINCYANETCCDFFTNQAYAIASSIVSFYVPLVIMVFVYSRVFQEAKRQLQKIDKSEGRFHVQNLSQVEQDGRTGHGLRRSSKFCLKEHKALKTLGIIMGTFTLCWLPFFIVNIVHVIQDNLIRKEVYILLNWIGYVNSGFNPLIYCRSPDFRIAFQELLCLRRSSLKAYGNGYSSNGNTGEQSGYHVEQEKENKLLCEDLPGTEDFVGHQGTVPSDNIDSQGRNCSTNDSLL
T1 sequence (Q07343 1-564 isoform Q07343-2): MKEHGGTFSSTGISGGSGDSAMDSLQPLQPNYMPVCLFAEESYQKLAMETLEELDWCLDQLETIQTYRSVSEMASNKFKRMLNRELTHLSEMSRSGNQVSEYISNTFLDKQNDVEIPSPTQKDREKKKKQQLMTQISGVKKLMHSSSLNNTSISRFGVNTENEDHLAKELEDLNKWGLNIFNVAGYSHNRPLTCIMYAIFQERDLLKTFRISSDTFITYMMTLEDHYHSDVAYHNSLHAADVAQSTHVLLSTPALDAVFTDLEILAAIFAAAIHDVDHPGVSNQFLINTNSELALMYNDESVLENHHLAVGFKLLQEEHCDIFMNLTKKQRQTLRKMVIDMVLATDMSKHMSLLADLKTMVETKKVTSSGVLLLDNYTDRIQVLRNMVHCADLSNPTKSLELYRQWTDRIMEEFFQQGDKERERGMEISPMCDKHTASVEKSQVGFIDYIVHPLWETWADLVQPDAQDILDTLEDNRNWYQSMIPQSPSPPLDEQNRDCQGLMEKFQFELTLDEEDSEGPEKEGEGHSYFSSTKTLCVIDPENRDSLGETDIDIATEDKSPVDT

- IC50 (Human recombinant PDE4B2): < 100 nM
- IC50 [1]: > 300 nM
- EC50 [2]: > 300 nM
Structure (SMILES): COc1cccc(Nc2c(C(N)=O)cnc3c(C)cc(S(=O)(=O)c4cccc(C(=O)Nc5ccc(CCCCCNC[C@H](O)c6ccc(O)c(CO)c6)cc5)c4)cc23)c1 [Example 26, (R)-6-[[3-[[4-[5-[[2-Hydroxy-2-[4-hydroxy-3-(hydroxymethyl)phenyl]ethyl]amino]pentyl]phenyl]carbamoyl]phenyl]sulfonyl]-4-[(3-methoxyphenyl)amino]-8-methylquinoline-3-carboxamide 2,2,2-trifluoroacetate]
- EC50 [3]: < 100 nM
- neutrophil inhibition [4]: ≤ 40%
